This passage reports kcat, kcat increase and increase in kcat results from US12534748B2, “Engineered beta-subunit of tryptophan synthase for production of non-canonical amino acids” (California Institute of Technology, priority 2015, dated 2026).

Molecules are shown by their SMILES.

Experiment [1] addresses T1, Pyrococcus furiosus TrpB variant PfTrpB^0B2 (P12L, E17G, I68V, T292S, F274S, T321A), SEQ ID NO: 12 (Pyrococcus furiosus, UniProt Q8U093, E17G/F274S/I68V/P12L/T292S/T321A).
T1 sequence (Q8U093 with tags, fused parts or gaps P12L/E17G/I68V/F274S/T292S/T321A): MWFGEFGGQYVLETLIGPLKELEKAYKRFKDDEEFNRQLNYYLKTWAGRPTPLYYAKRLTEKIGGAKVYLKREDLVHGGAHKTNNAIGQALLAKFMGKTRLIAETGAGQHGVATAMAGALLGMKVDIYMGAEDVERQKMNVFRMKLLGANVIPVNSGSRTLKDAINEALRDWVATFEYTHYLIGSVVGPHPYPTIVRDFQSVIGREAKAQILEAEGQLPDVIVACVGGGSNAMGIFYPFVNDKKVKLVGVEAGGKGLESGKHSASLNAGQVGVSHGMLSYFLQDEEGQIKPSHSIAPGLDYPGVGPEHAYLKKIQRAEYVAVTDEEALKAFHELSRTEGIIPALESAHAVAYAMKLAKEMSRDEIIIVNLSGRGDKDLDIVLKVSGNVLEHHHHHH
Nature of the experiment: Tryptophan formation from L-serine and indole, kinetics of PfTrpB^0B2. The protocol:
Cloning, Expression, and Purification of PfTrpA and PfTrpB. The genes encoding PfTrpB (UNIPROT ID Q8U093) and PfTrpA (UNIPROT ID Q8U094) were obtained as gBlocks and cloned into pET22(b)+ for expression in E. coli BL21 E. cloni EXPRESS cells (Lucigen). Heterologous protein expression of PfTrpA and PfTrpB was performed in Terrific Broth with 100 μg/mL ampicillin (TBamp) and induced with 500 mM IPTG (final concentration 1 mM). PfTrpB was purified via a HisTrap HP column. PfTrpA was purified via a Q HP HiTrap column (flow-through), followed by ammonium sulfate precipitation, and hydrophobic interaction chromatography on a phenyl Sepharose HP HiTrap column (FIG. 3).
Kinetics and UV-Vis Spectroscopy.
PfTrpB^4D11 served as template for a final round of random mutagenesis, for which 1,144 clones were screened.

The target in experiment [2] is T2, Thermotoga maritima TrpB variant TmTrpB^triple (P19G, I69V, T292S), SEQ ID NO: 34 (Thermotoga maritima, UniProt P50909, I69V/P19G/T292S).
T2 sequence (P50909 with tags, fused parts or gaps P19G/I69V/T292S): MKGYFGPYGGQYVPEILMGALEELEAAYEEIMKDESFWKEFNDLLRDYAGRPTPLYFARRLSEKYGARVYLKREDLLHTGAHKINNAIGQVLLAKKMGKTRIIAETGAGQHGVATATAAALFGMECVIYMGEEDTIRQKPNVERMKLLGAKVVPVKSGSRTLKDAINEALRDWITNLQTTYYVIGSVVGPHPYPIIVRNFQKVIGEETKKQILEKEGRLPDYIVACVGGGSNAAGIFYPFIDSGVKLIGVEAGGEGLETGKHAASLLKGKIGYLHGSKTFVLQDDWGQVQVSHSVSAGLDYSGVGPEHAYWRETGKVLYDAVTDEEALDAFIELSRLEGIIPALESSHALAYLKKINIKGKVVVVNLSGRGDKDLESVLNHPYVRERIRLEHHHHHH
Nature of the experiment: Tryptophan formation from L-serine and indole, kinetics of TmTrpB^triple. In kind it is biochemical. The protocol:
Kinetics and UV-Vis Spectroscopy. Data were collected between 550 and 250 nm on a UV1800 Shimadzu spectrophotometer (Shimadzu) using 0.25-20 μM of enzyme in 200 mM potassium phosphate (pH 8.0) in a quartz cuvette. Samples were incubated at 75° C. for >3 min to ensure a stable temperature was reached. PfTrpB activity (kcat) was measured by monitoring tryptophan formation at 290 nm using Δe290=1.89 mM^−1·cm^−1.
Cloning, expression, and purification of the different orthologs. The genes encoding AfTrpB (UNIPROT ID O28672), TmTrpB (UNIPROT ID P50909) and EcTrpB (UNIPROT ID P0A879) were obtained from IDT and cloned into pET22(b)+ using Gibson Assembly. Protein expression was carried out in E. coli BL21 E. cloni Express cells (Lucigen) by inoculating 10-mL Terrific Broth (with 100 μg/mL ampicillin (TBamp)) with a single colony and incubated over night at 37° C. and 250 rpm. These overnight cultures were used to scale up to 500-mL TBamp expression cultures, which were grown by shaking at 250 rpm and 37° C. for ˜3 h or until an OD600 of 0.8 was reached. […]
The next homolog, TmTrpB, was examined. […] The variants without the T292S mutation lacked this probative absorbance peak, but the decrease at 428 nm and concomitant increase at 350 nm are consistent with a similar, though less pronounced activation.

Regarding `c1ccc2[nH]ccc2c1` [indole], the kcat in experiment [1] (75° C.) amounted to 2.9 s⁻¹; in experiment [2] (75° C.) it was 9.8 s⁻¹. The kcat increase in experiment [1] (relative to PfTrpB) came out at 9.4 fold. The increase in kcat in experiment [2] (with respect to wild type) is reported as 8 fold.
